pIC50: −log10 of the molar value.
These molecules were tested against T1, SYK kinase (Homo sapiens, UniProt P43405) (assay: SYK assay (OMNIA Kinase Assay, Invitrogen)). Conditions: SYK Activities; 1 mM ATP, 10 μM Omnia Peptide Substrate Tyr 7, 30° C.
T1 construct: purchased Invitrogen, Carlsbad
Assay type: biochemical
Description: In the assay OMNIA® KINASE ASSAY by Invitrogen Corporation (Carlsbad) the effect of invention of a compound on the phosphorylation is determined by measurement of fluorescence intensity of a chelation-enhanced fluorophore called SOX. Upon phosphorylation of the peptide by the kinase of interest, Mg2+ is chelated to form a bridge between the SOX moiety and the phosphate group that is transferred to the specific tyrosine on the peptide. The fluorescence intensity is directly proportional to the amount of peptide phosphorylation.
To the wells of an 384 well small volume plate (Greiner, Frickenhausen) are added (i) the compound under test in 5% DMSO/distilled water (2 μl), (ii) 16 μl of the master mix containing ATP, DTT, Kinase Reaction Buffer, Omina Peptide Substrate Tyr 7 resulting in a final concentration of 1 mM ATP, 0.2 mM DTT and 10 μM Peptide Substrate. The Master Mix and the assay plate was incubated to reaction temperature before the measurement (30° C.). The reaction was started with addition of (iii) 2 μl 4 μg/ml SYK kinase (Invitrogen, Carlsbad). During measurement fluorescence intensitiy readings were collected using a TECAN M1000 at a wavelength of λex 360/λem 485 nm every 30 s for 30 minutes. The reaction velocity was plotted versus the inhibitor concentration to determine the IC50 using XLFit 5.0 (IDBS, Guildford) to fit to a sigmoidal dose response curve.

pIC50	SMILES
6.00 to 7.00	CC(=O)N1CCN(c2ccc(Nc3nc(-c4ccccc4F)nc4cn[nH]c34)cc2)CC1 [Example 26, 1-(4-(4-((5-(2-fluorophenyl)-1H-pyrazolo[4,3-d]pyrimidin-7-yl)amino)phenyl)piperazin-1-yl)ethan-1-one]
> 8.00	CN1CCN(c2ccc(Nc3nc(-c4ccc5cn[nH]c5c4)nc4cn[nH]c34)cc2CO)CC1 [Example 536, (5-((5-(1H-indazol-6-yl)-1H-pyrazolo[4,3-d]pyrimidin-7-yl)amino)-2-(4-methylpiperazin-1-yl)phenyl)methanol]
> 8.00	COCCCn1cc(Nc2nc(-c3ccoc3)nc3cn[nH]c23)cn1 [Example 221, 5-(furan-3-yl)-N-(1-(3-methoxypropyl)-1H-pyrazol-4-yl)-1H-pyrazolo[4,3-d]pyrimidin-7-amine]
7.00 to 8.00	FCCn1cc(Nc2nc(-c3ccoc3)nc3cn[nH]c23)cn1 [Example 361, N-(1-(2-fluoroethyl)-1H-pyrazol-4-yl)-5-(furan-3-yl)-1H-pyrazolo[4,3-d]pyrimidin-7-amine]
6.00 to 7.00	CS(=O)(=O)Nc1cccc(-c2nc(Nc3ccc4c(c3)NC(=O)CCC4)c3[nH]ncc3n2)c1 [Example 529, N-(3-(7-((2-oxo-2,3,4,5-tetrahydro-1H-benzo[b]azepin-8-yl)amino)-1H-pyrazolo[4,3-d]pyrimidin-5-yl)phenyl)methanesulfonamide]
6.00 to 7.00	CC(C(=O)O)n1cc(Nc2nc(-c3ccc4cn[nH]c4c3)nc3cn[nH]c23)cn1 (stereo not shown) [Example 493, 2-(4-((5-(1H-indazol-6-yl)-1H-pyrazolo[4,3-d]pyrimidin-7-yl)amino)-1H-pyrazol-1-yl)propanoic acid]
> 8.00	CC(C)(C)N1CCC(n2cc(Nc3nc(-c4nc5ccccc5s4)nc4cn[nH]c34)cn2)CC1 [Example 411, 5-(benzo[d]thiazol-2-yl)-N-(1-(1-(tert-butyl)piperidin-4-yl)-1H-pyrazol-4-yl)-1H-pyrazolo[4,3-d]pyrimidin-7-amine]
> 8.00	CC(=O)N1CCC(n2cc(Nc3nc(-c4cnn(C)c4)nc4cn[nH]c34)cn2)CC1 [Example 189, 1-(4-(4-((5-(1-methyl-1H-pyrazol-4-yl)-1H-pyrazolo[4,3-d]pyrimidin-7-yl)amino)-1H-pyrazol-1-yl)piperidin-1-yl)ethan-1-one]
6.00 to 7.00	Oc1ccccc1Nc1nc(-c2ccc3cn[nH]c3c2)nc2cn[nH]c12 [Example 506, 2-((5-(1H-indazol-6-yl)-1H-pyrazolo[4,3-d]pyrimidin-7-yl)amino)phenol]
6.00 to 7.00	CC(=O)N1CCN(c2ccc(Nc3nc(-c4ccno4)nc4cn[nH]c34)cc2)CC1 [Example 67, 1-(4-(4-((5-(isoxazol-5-yl)-1H-pyrazolo[4,3-d]pyrimidin-7-yl)amino)phenyl)piperazin-1-yl)ethan-1-one]
6.00 to 7.00	CC(C(=O)O)n1cc(Nc2nc(C3CC3)nc3cn[nH]c23)cn1 (stereo not shown) [Example 504, 2-(4-((5-cyclopropyl-1H-pyrazolo[4,3-d]pyrimidin-7-yl)amino)-1H-pyrazol-1-yl)propanoic acid]
6.00 to 7.00	COCCn1cc(Nc2nc(-c3cnn(C)c3)nc3cn[nH]c23)cn1 [Example 188, N-(1-(2-methoxyethyl)-1H-pyrazol-4-yl)-5-(1-methyl-1H-pyrazol-4-yl)-1H-pyrazolo[4,3-d]pyrimidin-7-amine]
7.00 to 8.00	O=C1CCCc2ccc(Nc3nc(-c4ccco4)nc4cn[nH]c34)cc2N1 [Example 113, 8-((5-(furan-2-yl)-1H-pyrazolo[4,3-d]pyrimidin-7-yl)amino)-4,5-dihydro-1H-benzo[b]azepin-2(3H)-one]
6.00 to 7.00	COc1ccc(Nc2nc(-c3ccno3)nc3cn[nH]c23)cc1OC [Example 68, N-(3,4-dimethoxyphenyl)-5-(isoxazol-5-yl)-1H-pyrazolo[4,3-d]pyrimidin-7-amine]
6.00 to 7.00	CC(=O)N1CCN(c2ccc(Nc3nc(C4CC4C)nc4cn[nH]c34)cc2)CC1 (stereo not shown) [Example 102, 1-(4-(4-((5-(2-methylcyclopropyl)-1H-pyrazolo[4,3-d]pyrimidin-7-yl)amino)phenyl)piperazin-1-yl)ethan-1-one]
7.00 to 8.00	NS(=O)(=O)c1cccc(-c2nc(Nc3cnn(C4CCOCC4)c3)c3[nH]ncc3n2)c1 [Example 425, 3-(7-((1-(tetrahydro-2H-pyran-4-yl)-1H-pyrazol-4-yl)amino)-1H-pyrazolo[4,3-d]pyrimidin-5-yl)benzenesulfonamide]
7.00 to 8.00	COCCCn1cc(Nc2nc(C3CCC3)nc3cn[nH]c23)cn1 [Example 224, 5-cyclobutyl-N-(1-(3-methoxypropyl)-1H-pyrazol-4-yl)-1H-pyrazolo[4,3-d]pyrimidin-7-amine]

pIC50	SMILES
7.00 to 8.00	COc1cccc(-c2nc(Nc3cnn(C4CCN(C(C)(C)C)CC4)c3)c3[nH]ncc3n2)c1 [Example 407, N-(1-(1-(tert-butyl)piperidin-4-yl)-1H-pyrazol-4-yl)-5-(3-methoxyphenyl)-1H-pyrazolo[4,3-d]pyrimidin-7-amine]
> 8.00	COc1cc(Nc2nc(-c3ccc4cn[nH]c4c3)nc3cn[nH]c23)ccc1N1CCOCC1 [Example 54, 5-(1H-indazol-6-yl)-N-(3-methoxy-4-morpholinophenyl)-1H-pyrazolo[4,3-d]pyrimidin-7-amine]
7.00 to 8.00	COc1ccc(Nc2nc(-c3ccco3)nc3cn[nH]c23)cc1OC [Example 87, N-(3,4-dimethoxyphenyl)-5-(furan-2-yl)-1H-pyrazolo[4,3-d]pyrimidin-7-amine]
7.00 to 8.00	CC(C)(C)n1cc(Nc2nc(-c3ccc4cn[nH]c4c3)nc3cn[nH]c23)cn1 [Example 415, N-(1-(tert-butyl)-1H-pyrazol-4-yl)-5-(1H-indazol-6-yl)-1H-pyrazolo[4,3-d]pyrimidin-7-amine]
> 8.00	CC(=O)N1CCN(c2ccc(Nc3nc(C4CCC4)nc4cn[nH]c34)cc2)CC1 [Example 192, 1-(4-(4-((5-cyclobutyl-1H-pyrazolo[4,3-d]pyrimidin-7-yl)amino)phenyl)piperazin-1-yl)ethan-1-one]
> 8.00	CC(C)(C)N1CCC(n2cc(Nc3nc(-c4ccoc4)nc4cn[nH]c34)cn2)CC1 [Example 291, N-(1-(1-(tert-butyl)piperidin-4-yl)-1H-pyrazol-4-yl)-5-(furan-3-yl)-1H-pyrazolo[4,3-d]pyrimidin-7-amine]
6.00 to 7.00	COc1cccc(-c2nc(Nc3cnn(C4CC4)c3)c3[nH]ncc3n2)c1 [Example 406, N-(1-cyclopropyl-1H-pyrazol-4-yl)-5-(3-methoxyphenyl)-1H-pyrazolo[4,3-d]pyrimidin-7-amine]
7.00 to 8.00	CC(C)Cn1cc(Nc2nc(C3CC3)nc3cn[nH]c23)cn1 [Example 233, 5-cyclopropyl-N-(1-isobutyl-1H-pyrazol-4-yl)-1H-pyrazolo[4,3-d]pyrimidin-7-amine]
6.00 to 7.00	COCC(C)(C)n1cc(Nc2nc(-c3ccoc3)nc3cn[nH]c23)cn1 [Example 290, 5-(furan-3-yl)-N-(1-(1-methoxy-2-methylpropan-2-yl)-1H-pyrazol-4-yl)-1H-pyrazolo[4,3-d]pyrimidin-7-amine]
7.00 to 8.00	OCCN1CCN(c2ccc(Nc3nc(-c4c(F)cccc4F)nc4cn[nH]c34)cc2)CC1 [Example 501, 2-(4-(4-((5-(2,6-difluorophenyl)-1H-pyrazolo[4,3-d]pyrimidin-7-yl)amino)phenyl)piperazin-1-yl)ethan-1-ol]
7.00 to 8.00	CC(C)(C)n1cc(Nc2nc(-c3ccoc3)nc3cn[nH]c23)cn1 [Example 218, N-(1-(tert-butyl)-1H-pyrazol-4-yl)-5-(furan-3-yl)-1H-pyrazolo[4,3-d]pyrimidin-7-amine]
7.00 to 8.00	CN1CCC(n2cc(Nc3nc(-c4nccs4)nc4cn[nH]c34)cn2)CC1 [Example 535, N-(1-(1-methylpiperidin-4-yl)-1H-pyrazol-4-yl)-5-(thiazol-2-yl)-1H-pyrazolo[4,3-d]pyrimidin-7-amine]
7.00 to 8.00	Fc1cc(Nc2nc(-c3ccc4cn[nH]c4c3)nc3cn[nH]c23)ccc1N1CCOCC1 [Example 46, N-(3-fluoro-4-morpholinophenyl)-5-(1H-indazol-6-yl)-1H-pyrazolo[4,3-d]pyrimidin-7-amine]
6.00 to 7.00	O=C(O)c1cccc(-c2nc(Nc3cnn(C4CCOCC4)c3)c3[nH]ncc3n2)c1 [Example 217, 3-(7-((1-(tetrahydro-2H-pyran-4-yl)-1H-pyrazol-4-yl)amino)-1H-pyrazolo[4,3-d]pyrimidin-5-yl)benzoic acid]
7.00 to 8.00	CC(=O)N1CCN(c2ccc(Nc3nc(-c4ccoc4)nc4cn[nH]c34)cc2)CC1 [Example 96, 1-(4-(4-((5-(furan-3-yl)-1H-pyrazolo[4,3-d]pyrimidin-7-yl)amino)phenyl)piperazin-1-yl)ethan-1-one]
6.00 to 7.00	Cc1c(Nc2nc(-c3ccoc3)nc3cn[nH]c23)cnn1C1CCOCC1 [Example 295, 5-(furan-3-yl)-N-(5-methyl-1-(tetrahydro-2H-pyran-4-yl)-1H-pyrazol-4-yl)-1H-pyrazolo[4,3-d]pyrimidin-7-amine]
7.00 to 8.00	COCCCn1cc(Nc2nc(-c3cccc(NS(C)(=O)=O)c3)nc3cn[nH]c23)cn1 [Example 260, N-(3-(7-((1-(3-methoxypropyl)-1H-pyrazol-4-yl)amino)-1H-pyrazolo[4,3-d]pyrimidin-5-yl)phenyl)methanesulfonamide]

Source: patent US9637491B2, “Pyrazolo[4,3-D]pyrimidines as kinase inhibitors” (Origenis GmbH, priority 2012, dated 2017)
